Data reported in patent publication US8389680B2, “Treatment of Aspergillus infections with alpha thymosin peptides” (SciClone Pharmaceuticals, Inc., priority 2003, dated 2013).
“Also recorded” adds a separate entry of the source.

What was measured:
human TLR2 = biological target: T1, human TLR2 (Homo sapiens, UniProt O60603); assay: IL-8 production by TLR2-transfected HEK293 cells; format: cell-based
T1 construct: expressed in transfected cells; host or cells: HEK293
Experimental: The human embryonic kidney cell line HEK293, wild type or stably transfected with human TLR2, TLR9 and TLR4/CD1427 were cultured in low glucose Dulbecco's modified Eagle's medium supplemented with 10% FCS, HEPES ([…]), L-glutamine ([…]), and gentamycin (50 microgram/ml). Transfectants were additionally supplemented with puromycin (100 microgram/ml). For stimulation experiments, cells were cultured at a density of 3 to 5×10^5 cells/wells in 12-well tissue culture plates overnight. Cells were washed and stimulated with 100 ng/ml TA1 either alone or together with TLR ligands for 5 h before the assessment of IL-8 production in the supernatants.
The levels of TNF-alpha, IL-10, IL-12 p70, IFN-alpha and IL-8 in culture supernatants were determined by Kit ELISAs. The detection limits (pg/ml) of the assays were <3 (human) and <32 (murine) for TNF-alpha, <12 (murine) and <5 (human) for IL-10, <16 (murine) and <3 (human) for IL-12 p70 and <25 (human) IL-8. For human IFN-alpha <3 ng/ml. For enumeration of cytokine-producing cells, an ELISPOT assay was used on purified CD4^+ T cells and DCs from lungs.

A. fumigatus [1] = assay: Local fungal growth after Aspergillus infection of TLR2-, TLR9- or MyD88-deficient mice; format: in vivo
From the text: Female, 8- to 10-weeks old, BALB/c and C57BL6 mice were from Charles River. NOD/SCID were from The Jackson. Breeding pairs of homozygous TLR2-, TLR9- and MyD88-deficient mice, raised on C57BL6 background, and of homozygous IFN-gamma- and IL-4-deficient mice, raised on BALB/c background, were bred under specific-pathogen free conditions.
(§1) For infection with A. fumigatus, mice were intranasally injected for 3 consecutive days with a suspension of 2×10^7 conidia/20 microliter saline. For the quantification of fungal growth in the lungs, the chitin assay was used. The chitin content was expressed as micrograms of glucosamine per organ. The glucosamine content of lungs from uninfected mice was used as a negative control ranging between 0.80 and 2.25 microgram glucosamine/organ. For histological analysis, lungs were excised and immediately fixed in formalin. Sections (3 to 4 micron) of paraffin-embedded tissues were stained with the periodic acid-Schiff procedure. Thymosin alpha 1 (TA1) and the scrambled polypeptide are as purified sterile lyophilized acetylated polypeptides with endotoxin levels less than 0.03 pg/ml, by a standard limulus lysate assay. The sequences were as follows: Ac-[…]O (Thymosin alpha 1, SEQ ID NO.: 1) and Ac-[…]OH ([…]). Their lyophilized powders were reconstituted in sterile water.
The treatments were as follows; in BMT-mice, TA1, at different doses administered intraperitoneally, sthymosin alpha 1, 400 microgram/kg administered intraperitoneally or human recombinant G-CSF 250 microgram/kg administered intravenously, were given daily beginning the day of the BM infusion, in concomitance with the infection and continuing for an additional 3 days. Amphotericin B was given daily for 3 days in concomitance with the infection, at a dose of 4000 microgram/kg, administered intraperitoneally. This dose would cure IA in cyclophosphamide-treated mice. Cyclophosphamide, 150 mg/kg administered intraperitoneally, was given a day before the infection. […]

A. fumigatus [2] = assay: BMT mice with invasive aspergillosis: survival, fungal growth in lungs (chitin assay), lung histology; format: in vivo
From the text: as §1
The treatments were as follows; in BMT-mice, TA1, at different doses administered intraperitoneally, sthymosin alpha 1, 400 microgram/kg administered intraperitoneally or human recombinant G-CSF 250 microgram/kg administered intravenously, were given daily beginning the day of the BM infusion, in concomitance with the infection and continuing for an additional 3 days. Amphotericin B was given daily for 3 days in concomitance with the infection, at a dose of 4000 microgram/kg, administered intraperitoneally. This dose would cure IA in cyclophosphamide-treated mice. Cyclophosphamide, 150 mg/kg administered intraperitoneally, was given a day before the infection. In cyclophosphamide-treated mice, 400 microgram/kg TA1 was given intraperitoneally for 5 consecutive days beginning the day of the infection.
C57BL6 mice were exposed to a lethal dose of 9 Gy and infused with T cell-depleted donor cells from BALB/c mice.

[3] = test system: human MDC and PDC subsets; assay: Activation of human MDC and PDC subsets: phagocytosis, phenotype, cytokine release; format: cell-based
Experimental: Blood CD 11c^+ myeloid DCs (MDCs) were generated from CD 14^+ mononuclear cells by magnetic cell sorting and cultured for 5 days in Iscove's modified medium, containing 10% fetal bovine serum, 50 micromolar 2-mercaptoethanol, sodium pyruvate (1 mM), 2 mM L-glutamine, HEPES (10 mM), and 50 micrograms/ml gentamycin in the presence of 50 ng/ml rHuman GM-CSF and 200 U/ml rHuman IL-4. Immature MDCs were cultured for 24 hours with 1000 ng/ml trimeric human CD40 ligand-leucine-zipper fusion protein to obtain mature DCs. CD 123^+ plasmacytoid DCs (PDCs) were isolated using the BDCA-4 isolation kit. Purity of CD 123^+ cells was >96%. For mature PDCs, immature DCs were cultured with the trimeric human CD40 ligand as above and 10 ng/ml IL-3. […] The expression of HLA Class II, CD80 and CD86 was high in both immature and mature DCs. Murine lung CD 11c^+ DCs (between 5 to 7% positive for CD8alpha and between 30 to 35% positive for Gr-1) were isolated by magnetic cell sorting. For phagocytosis, DCs were pre-exposed to 100 ng/ml TA1 for 60 minutes and subsequently incubated at 37° C. with Aspergillus conidia for an additional 60 minutes. The percentage of internalization was calculated and photographs were taken. In assessing functional maturation and cytokine determination, purified DCs were resuspended in Iscove's medium (with no serum but with polymixin B, to avoid non-specific activation by serum components and endotoxin) and pulsed with 100 ng/ml TA1 for 24 hours either alone or together with TLR ligands or unopsonized Aspergillus conidia. Cell surface phenotype was assessed by reacting samples with FITC- or PE-conjugated rat anti-mouse antibodies. Unrelated hisotype matched antibodies were used as control. The levels of TNF-alpha, IL-10, IL-12 p70, IFN-alpha and IL-8 in culture supernatants were determined by Kit ELISAs. The detection limits (pg/ml) of the assays were <3 (human) and <32 (murine) for TNF-alpha, <12 (murine) and <5 (human) for IL-10, <16 (murine) and <3 (human) for IL-12 p70 and <25 (human) IL-8. For human IFN-alpha <3 ng/ml. For enumeration of cytokine-producing cells, an ELISPOT assay was used on purified CD4^+ T cells and DCs from lungs.

[4] = mice treated with both agents (TA1 and amphotericin B)

T1 sequence (O60603 21-784): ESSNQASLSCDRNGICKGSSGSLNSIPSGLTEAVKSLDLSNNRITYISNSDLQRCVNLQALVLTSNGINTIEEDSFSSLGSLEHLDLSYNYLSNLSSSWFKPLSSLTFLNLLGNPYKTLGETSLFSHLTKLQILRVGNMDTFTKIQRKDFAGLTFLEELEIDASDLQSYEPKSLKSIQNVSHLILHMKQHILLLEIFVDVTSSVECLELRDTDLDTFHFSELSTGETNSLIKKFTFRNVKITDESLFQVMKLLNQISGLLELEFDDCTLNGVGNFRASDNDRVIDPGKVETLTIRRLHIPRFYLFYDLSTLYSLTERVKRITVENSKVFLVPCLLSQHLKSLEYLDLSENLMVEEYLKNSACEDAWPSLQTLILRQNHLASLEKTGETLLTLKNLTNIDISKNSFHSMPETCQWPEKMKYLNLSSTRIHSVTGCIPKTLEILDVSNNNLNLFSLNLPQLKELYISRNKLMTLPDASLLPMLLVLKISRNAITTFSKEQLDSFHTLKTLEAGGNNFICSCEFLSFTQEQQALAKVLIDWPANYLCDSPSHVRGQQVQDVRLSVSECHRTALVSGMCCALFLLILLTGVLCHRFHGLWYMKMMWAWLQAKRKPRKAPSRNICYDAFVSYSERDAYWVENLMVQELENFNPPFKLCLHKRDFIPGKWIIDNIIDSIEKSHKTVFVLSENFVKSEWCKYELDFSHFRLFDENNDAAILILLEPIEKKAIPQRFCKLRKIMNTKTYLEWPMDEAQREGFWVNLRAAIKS

## Ac-Ser-Asp-Ala-Ala-Val-Asp-Thr-Ser-Ser-Glu-Ile-Thr-Thr-Lys-Asp-Leu-Lys-Glu-Lys-Lys-Glu-Val-Glu-Glu-Ala-Glu-Asn-O (Ac-SDAAVDTSSEITTKDLKEKKEVEEAEN-OH) [TA1, naturally occurring thymic peptide]
Human TLR2; TA1 alone
  production of IL-8: did not stimulate
Human TLR2; in response to zymosan
  production of IL-8: potentiated; also recorded: slightly increased
A. fumigatus [1]; MyD88-deficient mice
  fungal growth: not impaired
A. fumigatus [1]; TLR2-deficient mice
  fungal growth: similarly impaired
A. fumigatus [1]; TLR9-deficient mice
  fungal growth: similarly impaired
A. fumigatus [2]; 200 and 400 microgram/kg TA1, amphotericin B 4000 microgram/kg
  protection compared with amphotericin B: superior to that of amphotericin B
A. fumigatus [2]; 200 microgram/kg TA1
  survival (full protection): > 60 days
A. fumigatus [2]; 400 microgram/kg TA1
  survival (full protection): > 60 days
A. fumigatus [2]; BMT mice with IA
  fungal growth in the lungs: dose-responsive reduction; also recorded: reduced fungal growth
  survival: increased survival
A. fumigatus [2]; BMT mice with IA, different doses
  effect on protection, dose relation: dose-dependent
A. fumigatus [2]; intraperitoneally, daily
  cure of BMT mice with IA: complete cure; also recorded: able to cure
A. fumigatus [2]; lung sections, periodic acid-Schiff
  lung pathology: decreases lung pathology
A. fumigatus [2]; mice treated with both agents
  effect on therapeutic efficacy of amphotericin B: increases the therapeutic efficacy of amphotericin B
A. fumigatus [2]; [4]
  fungal burden: decreased fungal burden
  survival: increased survival
[3]; 100 ng/ml
  activation of human MDC and PDC subsets: activates
[3]; Aspergillus conidia, 100 ng/ml pre-exposure 60 minutes
  phagocytic activity of immature DCs: increased
[3]; PDCs, in response to the TLR9 ligand CpG
  IFN-alpha production: significantly potentiated
[3]; immature MDCs
  DC morphology: more cytoplasmic projections
[3]; immature MDCs, in response to conidia
  release of IL-12 p70: significantly increase
[3]; immature MDCs, in response to zymosan
  release of IL-12 p70: significantly increase
[3]; immature PDCs, in response to conidia
  release of IL-10: significantly increase
[3]; in response to conidia
  HLA Class II antigens and costimulatory molecule expression: up-regulate
